In paper PMC10666288, “Unveiling the Catalytic Mechanism of a Processive Metalloaminopeptidase” (Biochemistry, 2023):
Where “and” joins values, the source holds several entries; their conditions need not be identical. Equal entries are not always repeated. Where two headings read alike, the source gives them in different places.

Experiments:
Type in all cases: biochemical
Set-up in all cases: GG stays after cleavage) (N); made in house; host or cells: E. coli BL21(DE3)
PaPepA [1] = molecular target: T1, PaPepA (Pseudomonas aeruginosa, UniProt Q02RY8); assay: Metal activation of Leu-pNA cleavage (metal varied, Leu-pNA fixed); settings: with 2 mM Leu-pNA
T1 sequence (Q02RY8 whole entry): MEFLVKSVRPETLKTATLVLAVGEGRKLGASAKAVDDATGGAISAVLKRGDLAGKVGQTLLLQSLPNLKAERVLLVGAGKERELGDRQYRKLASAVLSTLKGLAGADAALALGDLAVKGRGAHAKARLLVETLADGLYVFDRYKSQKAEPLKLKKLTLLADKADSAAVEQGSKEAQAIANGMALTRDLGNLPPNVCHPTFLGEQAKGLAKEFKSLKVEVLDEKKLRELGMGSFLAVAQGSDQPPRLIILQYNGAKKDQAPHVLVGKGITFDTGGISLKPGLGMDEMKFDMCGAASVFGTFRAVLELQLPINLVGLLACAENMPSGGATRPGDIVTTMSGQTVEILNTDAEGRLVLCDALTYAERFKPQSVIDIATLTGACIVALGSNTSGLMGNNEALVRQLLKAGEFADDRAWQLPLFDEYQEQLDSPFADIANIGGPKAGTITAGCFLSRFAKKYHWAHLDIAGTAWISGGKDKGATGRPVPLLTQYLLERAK
Procedure: A BMG Labtech POLARstar Omega plate reader was used for activity assays and kinetic studies involving amino acids conjugated to para-nitroaniline (pNA) (Sigma) or peptides as substrates. Assays were carried out at 25 °C in clear half-area 96-well plates (Greiner Bio-One). […] For kinetic assays investigating Leu-AMC as a substrate, a SpectraMax M2E was used. Reactions were carried out using black half-area 96-well plates with clear bottoms (Greiner Bio-One). Product formation was assessed by monitoring changes in fluorescence, with the excitation wavelength set at 341 nm and emission at 441 nm. The cutoff was 420 nm. PMT gain was set to medium, with six flashes per read. […] Calibration curves of pNA concentration vs absorbance and AMC vs fluorescence were constructed, and initial rate values were divided by the slope of these calibration curves to reveal the rate of product formation over time (Table S2).
For all assays excluding pH dependence curves, buffer conditions were as follows: 100 mM HEPES, 50 mM KCl, and pH 8.0. For assays carried out under pseudo-first-order conditions, one reaction component was fixed and in excess, while the other was varied. […] For assays involving variation of aa-pNA or aa-AMC, MnCl2 was added to a final concentration of 3 mM.

PaPepA [2] = molecular target: T1, PaPepA
From the text: Viscosity effects were studied by using sucrose as a viscogen. Relative viscosities for different concentrations of sucrose were taken from Bazelyansky et al.[27] Concentrations of viscogen were as follows: 14% sucrose, ηrel = 1.5; 24% sucrose, ηrel = 2.2; and 32% sucrose, ηrel = 2.9.
Viscosity effects were fit to the following equation, where kinetic parameter0 and kinetic parameterη are kcat or kcat/KM in the […] of viscogen, respectively, ηrel is the relative viscosity of the solution, and m is the slope. [drawing 4] 4
All measurements were performed in triplicate.

PaPepA [3] = molecular target: T1, PaPepA; assay: Solvent kinetic isotope effects; settings: H2O vs 80% D2O, metal varied, Leu-pNA fixed, pH 8.0
Procedure: SKIEs were determined by plotting saturation curves in H2O or 80% D2O. […] Differences between reaction rates under initial velocity conditions were measured varying the concentration of either Leu-pNA or Mn^2+, while keeping the other component constant and in excess (at least 5× the value of KM or KACT, Scheme 2). Experiments were performed at pH 8.0 (100 mM HEPES, with 50 mM KCl). For proton inventory studies, D2O was varied from 0 to 80% in 10% increments. All proton inventory studies were carried out on the same day by using the same enzyme stock.
When calculating SKIEs, kcat and KM were obtained from the Michaelis–Menten curves in H2O. The 80% D2O Michaelis–Menten curve was fit to the following equation: [drawing 2] 2 where Fi is the fraction D2O, and EV/K and EV are the isotope effects −1 on kcat/KM and kcat, respectively.

[4] = H2O (0% PEG-8000), MnCl2 varied

In the case of `[Mn+2]` [Mn^2+], the KACT (PaPepA [1]; pH 8.0) is reported as 0.10 ± 0.01 mM, the kcat (PaPepA [1]; pH 8.0) is reported as 0.27 s^–1 and 0.274 ± 0.004 s^–1 and the kcat/KACT (PaPepA [1]; pH 8.0) is reported as 2.7 ± 0.2 s^–1mM^–1. The KACT (PaPepA [1]; pH 8.0, as given in text) was 0.1 mM, the KACT (PaPepA [2]; [4]) was 0.19 ± 0.01 and the kcat/KACT (PaPepA [2]; [4]) was 2.2 ± 0.2. The kcat (PaPepA [2]; H2O (0% PEG-8000), labelled component varied, other saturating, in 1/s) was 0.409 ± 0.009, the “Slope (sucrose) on kcat/KACT” value (PaPepA [2]; sucrose as viscogen, Mn2+ variation) was -0.10 ± 0.06 and the “Slope (sucrose) on kcat” value (PaPepA [2]; sucrose as viscogen, labelled component varied) was 0.14 ± 0.05. For the same molecule, the “^D2Okcat” value (PaPepA [3]) was 3.9 ± 0.1 and the “^D2Okcat/KACT” value (PaPepA [3]) was 1.9 ± 0.2.
